The values that follow come from patent US8664277B2, “Compounds and methods for PKCθ inhibition” (Complegen Partners, LLC, priority 2008, dated 2014).

Molecules are shown by their SMILES. Read-outs that look alike come from different tables or passages of the source. Where only a bound is given, the exact number is not on record here.

Common to all, as to format: cell-based
Experiment [1] addresses T1, Human PKC theta (Homo sapiens, UniProt Q04759).
T1 construct: expressed in transfected cells; host or cells: yeast (XenoGene strain)
Briefly: XenoGene yeast growth inhibition, yeast containing human PKC theta gene. From the text: Using the XenoGene™ system described within, compounds inhibiting PKCθ are identified. The XenoGene™ system is a technology developed and patented by CompleGen wherein genes (“XenoGenes”™) from a target organism (e.g. humans) are used to functionally replace essential genes of a simple organism (yeast). These modified yeast are used to select compounds that act specifically on the protein encoded by the target gene and eliminate compounds that are not specific. […]

Experiment [2] has as its target T2, PKC delta (Homo sapiens, UniProt Q05655).
T2 construct: expressed in transfected cells; host or cells: yeast (XenoGene strain)
In words: XenoGene counter-screen, PKC delta. As to conditions: inverse of (PKC-theta IC50)/(PKC-X IC50). As for the experimental part: (§1) To identify compounds as being selective PKC theta inhibitors the IC50 values are determined against XenoGene™ strains containing other XenoGenes™, especially certain other PKC genes (see Example 10).
(§2) Human PKC theta gene (cDNA) was used to generate a XenoGene™ system as previously described (U.S. Pat. Nos. 6,998,261, 6,232,074), which was used to screen compounds in a chemical compound library. XenoGene™ systems used as counter-screens were constructed similarly using the gene for the appropriate counter-screen target. In particular, human genes (cDNA) encoding PKC delta, PKC eta and PKC epsilon were used to generate XenoGene™ systems.

The target of experiment [3] is T3, PKC epsilon (Homo sapiens, UniProt Q02156).
T3 construct: expressed in transfected cells; host or cells: yeast (XenoGene strain)
T3 sequence (Q02156 1-737): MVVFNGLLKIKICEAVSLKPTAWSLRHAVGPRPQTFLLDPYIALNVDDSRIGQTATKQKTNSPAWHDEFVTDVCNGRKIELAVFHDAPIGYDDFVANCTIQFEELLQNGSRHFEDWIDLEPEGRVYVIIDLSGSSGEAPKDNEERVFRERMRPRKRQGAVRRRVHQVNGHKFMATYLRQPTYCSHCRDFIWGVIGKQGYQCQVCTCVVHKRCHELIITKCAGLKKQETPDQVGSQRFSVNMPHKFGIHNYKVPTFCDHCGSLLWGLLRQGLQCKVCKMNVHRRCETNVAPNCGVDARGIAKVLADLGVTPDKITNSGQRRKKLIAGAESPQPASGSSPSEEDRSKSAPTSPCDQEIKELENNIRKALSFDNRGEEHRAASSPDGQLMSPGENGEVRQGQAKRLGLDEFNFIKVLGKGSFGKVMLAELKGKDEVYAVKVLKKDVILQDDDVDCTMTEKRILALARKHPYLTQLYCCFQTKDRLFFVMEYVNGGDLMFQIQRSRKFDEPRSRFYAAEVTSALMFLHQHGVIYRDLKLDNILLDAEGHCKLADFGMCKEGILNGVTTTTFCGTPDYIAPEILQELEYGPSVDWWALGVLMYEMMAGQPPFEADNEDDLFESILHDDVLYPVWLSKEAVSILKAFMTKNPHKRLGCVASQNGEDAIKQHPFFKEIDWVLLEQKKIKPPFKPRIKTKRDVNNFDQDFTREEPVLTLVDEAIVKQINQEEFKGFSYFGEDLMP
In words: XenoGene counter-screen, PKC epsilon. The settings on record: inverse of (PKC-theta IC50)/(PKC-X IC50). As for the experimental part:
as §1, §2

The target of experiment [4] is T4, PKC eta (Homo sapiens, UniProt P24723).
T4 construct: expressed in transfected cells; host or cells: yeast (XenoGene strain)
T4 sequence (P24723 whole entry): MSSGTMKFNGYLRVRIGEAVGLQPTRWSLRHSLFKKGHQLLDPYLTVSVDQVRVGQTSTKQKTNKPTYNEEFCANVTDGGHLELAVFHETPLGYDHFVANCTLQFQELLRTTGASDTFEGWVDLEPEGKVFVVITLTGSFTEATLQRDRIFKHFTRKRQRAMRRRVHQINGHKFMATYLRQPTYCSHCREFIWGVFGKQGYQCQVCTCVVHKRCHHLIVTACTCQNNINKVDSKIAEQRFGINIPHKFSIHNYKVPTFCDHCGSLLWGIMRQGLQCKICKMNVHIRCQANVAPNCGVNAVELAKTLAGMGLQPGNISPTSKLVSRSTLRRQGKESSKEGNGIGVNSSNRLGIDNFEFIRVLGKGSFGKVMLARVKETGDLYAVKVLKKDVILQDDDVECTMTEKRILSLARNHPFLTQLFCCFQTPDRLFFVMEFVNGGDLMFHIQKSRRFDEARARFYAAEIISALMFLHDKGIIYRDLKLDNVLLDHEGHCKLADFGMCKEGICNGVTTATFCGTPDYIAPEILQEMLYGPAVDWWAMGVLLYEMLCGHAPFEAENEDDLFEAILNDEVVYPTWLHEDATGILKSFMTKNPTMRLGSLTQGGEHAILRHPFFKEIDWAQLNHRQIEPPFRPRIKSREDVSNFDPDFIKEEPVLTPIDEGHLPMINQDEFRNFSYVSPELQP
In words: XenoGene counter-screen, PKC eta. The settings on record: inverse of (PKC-theta IC50)/(PKC-X IC50). As for the experimental part: as §1, §2
A general note: A counterscreen serves to expose hits that act by an unwanted route or on another target.

Experiment [5] deals with T5, yeast PKC1 (Saccharomyces cerevisiae, UniProt P24583).
T5 construct: endogenous in cells; host or cells: yeast control strain
T5 sequence (P24583 1-1151): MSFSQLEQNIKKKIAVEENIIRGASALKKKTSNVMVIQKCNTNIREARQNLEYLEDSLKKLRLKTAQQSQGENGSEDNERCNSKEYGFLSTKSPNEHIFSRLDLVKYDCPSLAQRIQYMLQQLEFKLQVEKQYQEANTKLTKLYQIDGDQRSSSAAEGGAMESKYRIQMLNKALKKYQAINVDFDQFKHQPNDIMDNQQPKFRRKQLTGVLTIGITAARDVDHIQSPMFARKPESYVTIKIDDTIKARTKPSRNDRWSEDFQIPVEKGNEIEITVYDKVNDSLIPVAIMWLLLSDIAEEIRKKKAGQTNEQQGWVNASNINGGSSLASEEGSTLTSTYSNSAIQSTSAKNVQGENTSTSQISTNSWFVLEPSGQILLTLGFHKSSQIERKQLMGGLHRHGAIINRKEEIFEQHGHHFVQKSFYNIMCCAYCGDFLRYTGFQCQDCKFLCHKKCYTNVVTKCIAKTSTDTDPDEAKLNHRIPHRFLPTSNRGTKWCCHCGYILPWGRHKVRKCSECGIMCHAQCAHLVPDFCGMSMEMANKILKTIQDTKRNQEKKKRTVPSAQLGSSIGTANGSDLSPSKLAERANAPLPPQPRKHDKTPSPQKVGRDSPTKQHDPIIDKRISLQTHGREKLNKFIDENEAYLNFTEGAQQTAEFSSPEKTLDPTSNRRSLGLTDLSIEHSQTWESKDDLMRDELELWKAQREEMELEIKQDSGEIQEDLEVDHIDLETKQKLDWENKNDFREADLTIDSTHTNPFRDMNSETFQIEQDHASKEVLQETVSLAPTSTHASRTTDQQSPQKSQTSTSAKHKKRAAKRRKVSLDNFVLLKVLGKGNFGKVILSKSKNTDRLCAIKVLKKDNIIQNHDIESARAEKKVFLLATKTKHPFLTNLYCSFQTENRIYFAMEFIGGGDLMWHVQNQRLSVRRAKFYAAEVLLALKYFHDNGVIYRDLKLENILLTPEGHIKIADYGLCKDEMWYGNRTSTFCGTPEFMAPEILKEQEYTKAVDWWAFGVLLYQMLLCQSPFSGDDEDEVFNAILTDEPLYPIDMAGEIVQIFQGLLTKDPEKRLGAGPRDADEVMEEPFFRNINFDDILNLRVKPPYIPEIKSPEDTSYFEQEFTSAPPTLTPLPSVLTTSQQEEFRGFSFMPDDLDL
Briefly: XenoGene counter-screen, yeast PKC1. The settings on record: inverse of (PKC-theta IC50)/(PKC-X IC50).
Text: Using the XenoGene™ system described within, compounds inhibiting PKCθ are identified. The XenoGene™ system is a technology developed and patented by CompleGen wherein genes (“XenoGenes”™) from a target organism (e.g. humans) are used to functionally replace essential genes of a simple organism (yeast). These modified yeast are used to select compounds that act specifically on the protein encoded by the target gene and eliminate compounds that are not specific. XenoGene™ constructs provide a very high throughput screening system that allows identification of compounds active on the function of the target protein in a cell under physiological conditions on “first-pass” screening and further, to selectively counter-screen against 200 human targets or more if necessary. […] The relative potencies of the active compounds is determined by titration to find the concentration of compound providing 50% inhibition of growth (IC50) against the yeast containing the target gene (Table 1).
as §2

Setting [6] is: 50% inhibition of growth of yeast containing the target gene, read-out: IC50.
Setting [7] is: IC50, 50% inhibition of growth of yeast containing the target gene.
The mark [8] stands for this setting: XenoGene system, read-out: PKC-theta IC50.

T2 sequence (Q05655 whole entry): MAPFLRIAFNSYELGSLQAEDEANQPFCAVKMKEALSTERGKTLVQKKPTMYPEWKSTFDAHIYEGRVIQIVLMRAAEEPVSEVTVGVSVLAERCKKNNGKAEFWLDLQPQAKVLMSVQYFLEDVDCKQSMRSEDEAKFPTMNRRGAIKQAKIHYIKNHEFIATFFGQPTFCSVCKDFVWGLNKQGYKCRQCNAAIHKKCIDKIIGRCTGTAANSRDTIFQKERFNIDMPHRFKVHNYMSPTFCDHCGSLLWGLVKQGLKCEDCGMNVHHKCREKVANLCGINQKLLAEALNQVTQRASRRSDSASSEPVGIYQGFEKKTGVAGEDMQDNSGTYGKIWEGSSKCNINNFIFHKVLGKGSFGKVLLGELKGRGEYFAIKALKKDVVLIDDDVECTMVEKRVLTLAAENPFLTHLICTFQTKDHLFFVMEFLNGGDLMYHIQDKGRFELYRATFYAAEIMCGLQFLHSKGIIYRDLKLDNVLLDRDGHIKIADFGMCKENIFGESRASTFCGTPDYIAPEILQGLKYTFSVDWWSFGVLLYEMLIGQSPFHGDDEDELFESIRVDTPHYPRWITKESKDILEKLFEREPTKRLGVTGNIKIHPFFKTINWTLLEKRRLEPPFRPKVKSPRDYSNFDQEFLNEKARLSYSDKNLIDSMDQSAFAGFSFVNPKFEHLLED
T1 sequence (Q04759 whole entry): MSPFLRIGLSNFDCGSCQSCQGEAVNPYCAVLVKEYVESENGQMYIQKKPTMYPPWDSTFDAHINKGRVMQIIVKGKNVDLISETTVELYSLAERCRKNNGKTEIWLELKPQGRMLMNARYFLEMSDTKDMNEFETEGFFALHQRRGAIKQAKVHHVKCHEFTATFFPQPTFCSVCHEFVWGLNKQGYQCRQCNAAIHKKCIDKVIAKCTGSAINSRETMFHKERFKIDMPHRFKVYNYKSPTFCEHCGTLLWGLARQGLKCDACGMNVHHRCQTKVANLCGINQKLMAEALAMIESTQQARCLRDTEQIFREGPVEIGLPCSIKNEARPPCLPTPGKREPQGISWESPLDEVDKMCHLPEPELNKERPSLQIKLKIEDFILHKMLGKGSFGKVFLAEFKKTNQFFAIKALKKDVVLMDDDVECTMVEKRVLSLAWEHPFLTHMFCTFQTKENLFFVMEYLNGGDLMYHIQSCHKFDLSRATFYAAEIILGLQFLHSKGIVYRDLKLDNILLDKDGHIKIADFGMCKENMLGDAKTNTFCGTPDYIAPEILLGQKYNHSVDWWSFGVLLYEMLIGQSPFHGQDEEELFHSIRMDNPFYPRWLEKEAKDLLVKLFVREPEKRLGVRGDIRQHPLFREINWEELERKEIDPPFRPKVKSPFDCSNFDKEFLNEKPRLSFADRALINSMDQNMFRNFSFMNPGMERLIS

For `CC(C)(C)c1ccc(Oc2ccc(N)nc2)cc1` [Compound 486], the half-inhibitory concentration (IC50) in experiment [1] (setting [6]) is over 10000 nM. Consider `Nc1ccc(Oc2ccc(OC(F)(F)F)cc2Cl)cc1` [Compound 498], for which the IC50 in experiment [1] (setting [6]) was under 1000 nM.

For `Nc1ccc(Oc2ccc(C(F)(F)F)cc2Cl)cc1` [Compound 499], in experiment [1] (setting [7]), the IC50 is under 1000 nM. `Nc1ccc(Oc2ccccc2)cc1` [Compound 500]: the IC50 in experiment [1] (setting [6]) is over 10000 nM. Turning to `CC(=O)Nc1ccc(Oc2ccc(Cl)cc2Cl)cc1` [Compound 501], in experiment [1] (setting [7]), the IC50 is over 10000 nM. For `Nc1ccc(Oc2cc(Cl)cc(Cl)c2)cc1` [Compound 504], the IC50 in experiment [1] (setting [6]) was 1000 to 10000 nM; in experiment [1] (setting [8]), 1600 nM. The “Selectivity for PKC-theta v. PKC-delta” value in experiment [2] is listed as 8.1. In experiment [3], the “Selectivity for PKC-theta v. PKC-epsilon” value amounted to 8.8. Also, the “Selectivity for PKC-theta v. PKC-eta” value in experiment [4] worked out at 1.8. In the same order, the values of `Cc1cc(Oc2ccc(N)cc2)ccc1Cl` [Compound 505] are under 1000 nM, 400 nM, 13, 11 and 3.0. For the compound `Nc1ccc(Oc2ccc(Cl)cc2Cl)cc1` [Compound 506, 4-(2,4-dichlorophenoxy)aniline], the IC50 in experiment [1] (setting [6]) was 1000 to 10000 nM; in experiment [1] (setting [8]), 1600 nM. The “Selectivity for PKC-theta v. PKC-delta” value in experiment [2] was found to be 1.9. In addition, in experiment [3], the “Selectivity for PKC-theta v. PKC-epsilon” value is on record as 2.5. Moreover, in experiment [4], the “Selectivity for PKC-theta v. PKC-eta” value was determined as 0.63. Besides, the “Selectivity for PKC-theta v. yeast PKC1” value in experiment [5] came to 9.4.

Regarding `Cc1cc(Oc2ccc(N)cc2)ccc1Cl` [Compound 507], the IC50 in experiment [1] (setting [6]) was in the range of 1000 to 10000 nM. The same measure, in the same setting: the same measure for `Cc1ccc(Oc2ccc(N)cc2)cc1` [Compound 508]: 1000 to 10000 nM; for `Nc1ccc(Oc2ccc(OC(F)(F)F)cc2)cc1` [Compound 510]: under 1000 nM.

Regarding `Nc1ccc(Oc2ccccc2C(=O)O)cc1` [Compound 553], the IC50 in experiment [1] (setting [6]) is over 10000 nM.

Regarding `CCC(C)(C)c1ccc(Oc2ccc(N)cc2)cc1` [Compound 730], in experiment [1] (setting [6]), the IC50 is under 1000 nM. Still for that read-out and setting: then `Nc1ccc(Oc2ccc(C(F)(F)F)cc2)cc1` [Compound 733], with 1000 to 10000 nM. For `CC(C)(C)c1ccc(Sc2ccc(N)cc2)cc1` [Compound 740], the IC50 is under 1000 nM in experiment [1] (setting [6]) and 50 nM in experiment [1] (setting [8]). For the same compound, the “Selectivity for PKC-theta v. PKC-delta” value in experiment [2] is recorded as 26. Besides, the “Selectivity for PKC-theta v. PKC-epsilon” value in experiment [3] is recorded as 12. Moreover, the “Selectivity for PKC-theta v. PKC-eta” value in experiment [4] was found to be 3.0. Also, the “Selectivity for PKC-theta v. yeast PKC1” value in experiment [5] was 80. On to `Nc1ccc(Sc2ccc(C(F)(F)F)cc2)cc1` [Compound 741], for which the values for the IC50 in experiment [1] (setting [6]) and in experiment [1] (setting [8]) were under 1000 nM and 250 nM, respectively. The “Selectivity for PKC-theta v. PKC-delta” value in experiment [2] is recorded as 8.0. Moreover, the “Selectivity for PKC-theta v. PKC-epsilon” value in experiment [3] came out at 16. In addition, the “Selectivity for PKC-theta v. PKC-eta” value in experiment [4] stood at 4.0. Further, the “Selectivity for PKC-theta v. yeast PKC1” value in experiment [5] came out at 32. As to `CC(C)c1ccc(Oc2ccc(N)cc2)cc1` [Compound 742], the IC50 in experiment [1] (setting [6]) is under 1000 nM. With `CCCc1ccc(Oc2ccc(N)cc2)cc1` [Compound 745], in experiment [1] (setting [6]), the IC50 was under 1000 nM.

`Nc1ccc(Oc2ccc(C(F)(F)F)cc2Br)cc1` [Compound 747]: in experiment [1] (setting [6]), the IC50 is under 1000 nM. Take `CC(C)(C)c1ccc(S(=O)(=O)c2ccc(N)cc2)cc1` [Compound 749]: the IC50 in experiment [1] (setting [6]) fell in the range of 1000 to 10000 nM. Same read-out and setting: then `CC(C)(C)c1ccc(S(=O)(=O)c2ccc(N)cc2)cc1` [Compound 750], with over 10000 nM; and `Nc1ccc([S+]([O-])c2ccc(C(F)(F)F)cc2)cc1` (centres unmarked) [Compound 751], with over 10000 nM.

Consider `Nc1ccc(S(=O)(=O)c2ccc(C(F)(F)F)cc2)cc1` [Compound 753], for which the IC50 in experiment [1] (setting [6]) fell in the range of 1000 to 10000 nM. Still for that read-out and setting: the same measure for `Nc1ccc(Oc2ccc(C3CCCC3)cc2)cc1` [Compound 761]: under 1000 nM.

As a reminder, the IC50 is the midpoint of a concentration-inhibition curve.
